Usually melting point stands for the temperature of the solid-liquid transition. Usually inhibition stands for how much of the control response was suppressed. A higher inhibition goes with strong suppression. The term IC50 denotes the midpoint of a concentration-inhibition curve.

Where only a bound is given, the exact number is not on record here.

In data set [1] the target is T1, DPP-IV (Homo sapiens, UniProt P27487).
T1 construct: from tissue; host or cells: human plasma (per the earlier reading of the assay)
T1 sequence (P27487 39-766 limits assumed): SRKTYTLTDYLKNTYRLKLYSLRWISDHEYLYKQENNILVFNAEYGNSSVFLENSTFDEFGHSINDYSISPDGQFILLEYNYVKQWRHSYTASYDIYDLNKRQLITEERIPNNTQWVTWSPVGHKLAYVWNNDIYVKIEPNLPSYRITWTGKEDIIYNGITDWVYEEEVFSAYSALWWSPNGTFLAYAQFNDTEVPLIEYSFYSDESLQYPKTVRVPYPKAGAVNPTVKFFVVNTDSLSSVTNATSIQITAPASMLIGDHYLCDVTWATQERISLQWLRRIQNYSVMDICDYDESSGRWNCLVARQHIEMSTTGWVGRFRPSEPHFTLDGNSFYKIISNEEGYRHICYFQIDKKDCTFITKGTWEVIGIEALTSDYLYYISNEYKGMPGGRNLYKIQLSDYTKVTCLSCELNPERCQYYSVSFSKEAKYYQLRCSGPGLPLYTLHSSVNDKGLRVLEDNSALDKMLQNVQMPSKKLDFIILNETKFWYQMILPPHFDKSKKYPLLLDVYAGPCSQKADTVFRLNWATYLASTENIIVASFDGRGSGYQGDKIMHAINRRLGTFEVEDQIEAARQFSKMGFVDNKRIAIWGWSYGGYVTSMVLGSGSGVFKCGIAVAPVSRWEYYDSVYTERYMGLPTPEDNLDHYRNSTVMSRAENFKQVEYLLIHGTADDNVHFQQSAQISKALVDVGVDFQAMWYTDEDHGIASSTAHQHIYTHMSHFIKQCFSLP
The experiment in a line: DPP-IV inhibition, compounds screened by using human plasma. It counts as biochemical. The settings on record: screened by using human plasma (starred examples); for inhibition at 0.3 µM: 300 nM compound concentration.

The target of data set [2] is T2, human recombinant Dipeptidyl peptidase 8 enzyme (hrDPP 8) (Homo sapiens, UniProt Q6V1X1).
T2 construct: purchased R&D systems
T2 sequence (Q6V1X1 whole entry): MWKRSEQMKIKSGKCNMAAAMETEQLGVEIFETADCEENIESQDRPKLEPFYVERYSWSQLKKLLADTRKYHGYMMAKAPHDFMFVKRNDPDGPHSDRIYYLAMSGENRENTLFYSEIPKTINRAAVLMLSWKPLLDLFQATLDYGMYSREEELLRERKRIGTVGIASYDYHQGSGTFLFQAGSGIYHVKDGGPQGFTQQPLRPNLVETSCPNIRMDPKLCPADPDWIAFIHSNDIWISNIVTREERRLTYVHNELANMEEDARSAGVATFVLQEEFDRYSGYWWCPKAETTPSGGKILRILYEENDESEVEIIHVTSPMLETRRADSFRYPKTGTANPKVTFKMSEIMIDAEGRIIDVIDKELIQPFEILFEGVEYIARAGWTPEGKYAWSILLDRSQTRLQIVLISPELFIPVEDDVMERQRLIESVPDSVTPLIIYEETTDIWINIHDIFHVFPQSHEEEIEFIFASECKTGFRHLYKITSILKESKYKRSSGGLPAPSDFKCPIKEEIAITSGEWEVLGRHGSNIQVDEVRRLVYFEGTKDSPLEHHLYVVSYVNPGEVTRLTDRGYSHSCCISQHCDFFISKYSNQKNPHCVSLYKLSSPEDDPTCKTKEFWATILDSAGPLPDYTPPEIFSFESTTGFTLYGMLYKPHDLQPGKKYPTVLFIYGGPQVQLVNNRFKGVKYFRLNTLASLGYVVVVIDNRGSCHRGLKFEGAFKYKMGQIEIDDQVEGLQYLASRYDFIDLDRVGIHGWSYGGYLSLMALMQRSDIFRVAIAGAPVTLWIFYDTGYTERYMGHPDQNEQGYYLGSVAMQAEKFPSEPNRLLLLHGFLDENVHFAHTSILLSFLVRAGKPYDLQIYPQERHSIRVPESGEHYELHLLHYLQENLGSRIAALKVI
The data set can be described thus: DPP 8 assay, cleavage of H-Ala-Pro-AFC. The format is biochemical. The settings on record: selectivity for DPP-IV over DPP 8. The procedure:
DPP 8 activity was determined by the cleavage rate of 7-amino 4-fluoromethylcoumarin (AFC) from the substrate H-Ala-Pro-AFC. In brief, the assay was conducted by adding 30 ng of human recombinant Dipeptidyl peptidase 8 enzyme (hrDPP 8, available commercially from R&D systems) in 70 μL of the assay buffer (50 mM TRIS and 5 mM EDTA, pH 7.7) to a 96 well black flat bottom microtitre plate. Test compound was added as 10 μL additions to all wells except blank and total activity wells. After incubation of test substance with enzyme for 30 minutes at room temperature, 10 μL of 100 μM substrate H-Ala-Pro-AFC was added. After mixing, the plate was left for 30 minutes at room temperature. Then the reaction was terminated by addition of 10 μL of 25% Glacial Acetic Acid. Fluorescence was measured using Spectra Max Gemini XS (Molecular Devices, USA) at an excitation filter of 400 nm and emission filter of 505 nm.
Test compound dissolved in DMSO were diluted with assay buffer at different concentrations and tested in duplicates. Percentage inhibition was calculated with respect to total activity. IC50 value was calculated using Prism Software.

Data set [3] addresses T3, human recombinant Dipeptidyl peptidase IV enzyme (hrDPP IV) (Homo sapiens, UniProt P27487).
T3 construct: purchased R&D systems
The experiment in a line: DPP IV assay, cleavage of H-Gly-Pro-AMC by human recombinant DPP-IV enzyme. It counts as biochemical. The gist of the method: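 Human recombinant DPP-IV (3 ng) preincubated 60 min at room temperature with compound in 25 mM HEPES, 140 mM NaCl, 1% BSA, pH 7.8, in duplicate. Reaction with H-Gly-Pro-AMC (10 μL of 100 μM) for 20 min, stopped with acetic acid; AMC fluorescence 360/460 nm, IC50 from percent inhibition.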

Data set [4] deals with T4, human recombinant Dipeptidyl peptidase 9 enzyme (hrDPP 9) (Homo sapiens, UniProt Q86TI2).
T4 construct: purchased R&D systems
T4 sequence (Q86TI2 whole entry): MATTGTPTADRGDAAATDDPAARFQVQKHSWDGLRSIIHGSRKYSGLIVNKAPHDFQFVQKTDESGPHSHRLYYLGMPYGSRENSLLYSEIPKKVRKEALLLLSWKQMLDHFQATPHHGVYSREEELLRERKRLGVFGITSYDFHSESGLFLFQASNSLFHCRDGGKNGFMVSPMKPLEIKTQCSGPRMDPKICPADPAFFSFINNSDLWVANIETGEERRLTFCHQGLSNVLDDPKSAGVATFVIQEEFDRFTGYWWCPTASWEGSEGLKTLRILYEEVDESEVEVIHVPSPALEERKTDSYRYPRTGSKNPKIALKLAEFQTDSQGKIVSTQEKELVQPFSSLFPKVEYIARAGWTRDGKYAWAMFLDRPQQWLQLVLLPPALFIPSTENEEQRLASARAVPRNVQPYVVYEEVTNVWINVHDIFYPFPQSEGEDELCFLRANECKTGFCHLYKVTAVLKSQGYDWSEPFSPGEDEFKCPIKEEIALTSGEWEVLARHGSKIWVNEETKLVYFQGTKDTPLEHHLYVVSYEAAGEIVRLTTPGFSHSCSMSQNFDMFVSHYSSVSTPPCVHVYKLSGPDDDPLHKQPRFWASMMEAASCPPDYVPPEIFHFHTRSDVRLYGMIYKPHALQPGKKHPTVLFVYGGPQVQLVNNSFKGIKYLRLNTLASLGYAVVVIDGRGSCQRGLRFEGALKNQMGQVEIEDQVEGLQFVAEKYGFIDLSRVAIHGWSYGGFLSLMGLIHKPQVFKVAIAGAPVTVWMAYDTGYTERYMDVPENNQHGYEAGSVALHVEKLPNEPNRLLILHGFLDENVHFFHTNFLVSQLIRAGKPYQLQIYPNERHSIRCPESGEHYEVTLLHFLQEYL
The data set can be described thus: DPP 9 assay, cleavage of H-Gly-Pro-AMC. The format is biochemical. The settings on record: selectivity for DPP-IV over DPP 9. On the procedure: DPP 9 activity was determined by the cleavage rate of 7-amino 4-methylcoumarin (AMC) from the substrate H-Gly-Pro-AMC. In brief, the assay was conducted by adding 10 ng of human recombinant Dipeptidyl peptidase 9 enzyme (hrDPP 9, available commercially from R&D systems) in 70 μL of the assay buffer (50 mM TRIS and 5 mM EDTA, pH 7.7) to a 96 well black flat bottom microtitre plate. Test compound was added as 10 μL additions to all wells except blank and total activity wells. After incubation of test substance with enzyme for 30 minutes at room temperature, 10 μL of 100 μM substrate H-Gly-Pro-AMC was added. After mixing, the plate was left for 30 minutes at room temperature. Then the reaction was terminated by addition of 10 μL of 25% Glacial Acetic Acid. Fluorescence was measured using Spectra Max Gemini XS (Molecular Devices, USA) at an excitation filter of 360 nm and emission filter of 460 nm.
Test compound dissolved in DMSO were diluted with assay buffer at different concentrations and tested in duplicates. Percentage inhibition was calculated with respect to total activity. IC50 value was calculated by using Prism Software.

Data set [5] relates to C57BL/6 mice. The data set can be described thus: Oral glucose tolerance test. It counts as in vivo. The settings on record: compound 10 mg/kg, glucose 2 g/kg challenge 0.50 hr after compound administration. On the procedure:
Effect of compound on glucose tolerance was examined in 7 week old C57BL/6 mice. Animals were kept for 18 h fasting and were challenged with glucose (2 g/kg) 30 min after compound (10 mg/kg) administration. Blood samples for glucose measurement were obtained by tail bleed pre dose and at serial time points after the glucose load (30, 60 and 120 minutes). Blood glucose estimation was done by using ContourTS active strips on glucometer (Bayer). To find the time response on glucose excursion, animals were challenged with glucose at different time point after compound administration (0.5, 2, 4, 6, 8, 12 or 24 hours) at blood glucose was measured at pre (0 minute) and post (30, 60 and 120 minutes) glucose load.
Results of blood glucose were expressed as area under curve (AUC) was calculated using Prism software.

T3 sequence (P27487 whole entry): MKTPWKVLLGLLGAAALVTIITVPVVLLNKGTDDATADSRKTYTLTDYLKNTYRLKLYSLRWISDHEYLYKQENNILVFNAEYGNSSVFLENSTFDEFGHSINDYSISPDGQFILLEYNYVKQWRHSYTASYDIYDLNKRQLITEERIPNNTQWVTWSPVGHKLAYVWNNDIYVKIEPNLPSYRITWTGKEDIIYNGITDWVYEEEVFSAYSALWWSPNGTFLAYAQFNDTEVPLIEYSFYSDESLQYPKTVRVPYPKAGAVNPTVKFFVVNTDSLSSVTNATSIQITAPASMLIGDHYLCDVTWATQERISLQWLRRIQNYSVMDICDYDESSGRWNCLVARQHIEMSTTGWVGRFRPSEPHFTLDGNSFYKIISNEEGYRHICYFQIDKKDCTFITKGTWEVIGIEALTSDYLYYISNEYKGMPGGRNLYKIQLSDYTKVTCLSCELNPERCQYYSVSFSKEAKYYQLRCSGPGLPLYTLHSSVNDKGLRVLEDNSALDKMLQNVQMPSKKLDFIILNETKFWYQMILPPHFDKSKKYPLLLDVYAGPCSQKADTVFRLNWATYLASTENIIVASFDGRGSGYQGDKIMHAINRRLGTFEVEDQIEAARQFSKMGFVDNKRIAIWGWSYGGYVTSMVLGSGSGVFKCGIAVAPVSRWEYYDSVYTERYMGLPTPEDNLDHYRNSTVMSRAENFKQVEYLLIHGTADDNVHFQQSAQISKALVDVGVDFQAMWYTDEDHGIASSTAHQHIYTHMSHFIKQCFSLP

`CC(C)c1noc([C@H]2CC[C@@](C)(NCC(=O)N3C[C@@H](F)C[C@H]3C#N)C2(C)C)n1` [Example 52, (2S,4S)-4-Fluoro-1-(2-((1R,3S)-3-(3-isopropyl-1,2,4-oxadiazol-5-yl)-1,2,2-trimethylcyclopentylamino)acetyl)pyrrolidine-2-carbonitrile]: the melting point lay in the range of 91 to 94 °C. Also, the inhibition at 0.3 µM in data set [1] came to 29.2%.
For the molecule `CC1(C)[C@@H](c2nc(-c3ccc(F)cc3)no2)CC[C@@]1(C)NCC(=O)N1C[C@@H](F)C[C@H]1C#N` [Example 48, (2S,4S)-4-Fluoro-1-(2-((1R,3S)-3-(3-(4-fluorophenyl)-1,2,4-oxadiazol-5-yl)-1,2,2-trimethyleyclopentylamino)acetyl)pyrrolidine-2-carbonitrile], testing at 0.3 µM in data set [1] gave an inhibition of 4.46%.
Molecule `CC1(C)[C@H](CS(=O)(=O)c2ccc(S(C)(=O)=O)cc2)CC[C@]1(C)NCC(=O)N1C[C@H](F)C[C@H]1C#N` [Example 47, (2S,4R)-4-Fluoro-1-(2-((1S,3R)-1,2,2-trimethyl-3-((4-(methylsulfonyl)phenylsulfonyl)methyl)cyclopentylamino)acetyl)pyrrolidine-2-carbonitrile] returned a melting point of 172 to 175 °C. Moreover, the inhibition at 0.3 µM in data set [1] was found to be 13.5%.
With `CC1(C)[C@@H](NCC(=O)N2CCC[C@H]2C#N)CC[C@@]1(C)c1nc(-c2ccc(F)cc2)no1` [Example 66, (S)-1-(2-((1S,3R)-3-(3-(4-Fluorophenyl)-1,2,4-oxadiazol-5-yl)-2,2,3-trimethylcyclopentylamino)acetyl)pyrrolidine-2-carbonitrile methanesulfonate], the inhibition at 0.3 µM in data set [1] worked out at 23.2%.
In turn, `CN1C[C@]2(C)CC[C@](NCC(=O)N3C[C@H](F)C[C@H]3C#N)(C1)C2(C)C` [Example 77, (2S,4R)-4-Fluoro-1-(2-((1R,5R)-3,5,8,8-tetramethyl-3-azabicyclo[3.2.1]octan-1-ylamino)acetyl)pyrrolidine-2-carbonitrile] yielded a melting point of 74 to 79 °C. The molecule further gave an inhibition at 0.3 µM in data set [1] of 13.4%.
As for `CC1(C)[C@H](Cn2cncn2)CC[C@]1(C)NCC(=O)N1C[C@H](F)C[C@H]1C#N` [Example 5, (2S,4R)-1-(2-((1S,3R)-3-((1H-1,2,4-Triazol-1-yl)methyl)-1,2,2-trimethylcyclopentylamino)acetyl)-4-fluoropyrrolidine-2-carbonitrilemethanesulfonate], the inhibition at 0.3 µM in data set [1] was found to be 4.1%.
`CC1(C)[C@@H](CNC(=O)c2ccccc2F)CC[C@@]1(C)NCC(=O)N1C[C@@H](F)C[C@H]1C#N` [Example 21, N-(((1S,3R)-3-(2-((2S,4S)-2-Cyano-4-fluoropyrrolidin-1-yl)-2-oxoethylamino)-2,2,3-trimethylcyclopentyl)methyl)-2-fluorobenzamide] displayed a melting point of 123 to 127 °C. In data set [1], this molecule yielded an IC50 of 330 nM.
`CC1(C)[C@H](Cn2cnnn2)CC[C@]1(C)NCC(=O)N1C[C@@H](F)C[C@H]1C#N` [Example 32, (2S,4S)-1-(2-((1S,3R)-3-((1H-Tetrazol-1-yl)methyl)-1,2,2-trimethylcyclopentylamino)acetyl)-4-fluoropyrrolidine-2-carbonitrile] showed a melting point of 151 to 154 °C. Further, the “Selectivity (Fold) DPP 8” value in data set [2] is over 9500 Fold. Moreover, the 50% inhibitory concentration (IC50) in data set [3] was determined as 6.01 nM. In addition, in data set [4], the “Selectivity (Fold) DPP 9” value is over 1900 Fold. Moreover, in data set [5], the “Antihyperglycemic activity, reduction in AUC (blood glucose), Time 0.50 hr” value came out at 17.80%.
In the same order, the values of `CC1(C)[C@H](CN2CCOCC2)CC[C@]1(C)NCC(=O)N1C[C@@H](F)C[C@H]1C#N` [Example 34, (2S,4S)-4-Fluoro-1-(2-((1S,3R)-1,2,2-trimethyl-3-(morpholinomethyl)cyclopentylamino)acetyl)pyrrolidine-2-carbonitrile] are 163 to 166 °C, over 10000 Fold, 8.94 nM, over 1500 Fold and 54.32%.
In data set [1], `CC1(C)[C@@H](NCC(=O)N2C[C@@H](F)C[C@H]2C#N)CC[C@@]1(C)c1nc(-c2ccc(F)cc2)no1` [Example 65, (2S,4S)-4-Fluoro-1-(2-((1S,3R)-3-(3-(4-fluorophenyl)-1,2,4-oxadiazol-5-yl)-2,2,3-trimethylcyclopentylamino)acetyl)pyrrolidine-2-carbonitrile] returned a concentration for half-maximal inhibition (IC50) of 238 nM.
`CC1(C)[C@@H](Cn2cncn2)CC[C@@]1(C)NCC(=O)N1C[C@H](F)C[C@H]1C#N` [Example 2, (2S,4R)-1-(2-((1R,3S)-3-((1H-1,2,4-Triazol-1-yl)methyl)-1,2,2-trimethylcyclopentylamino)acetyl)-4-fluoropyrrolidine-2-carbonitrilemethane sulfonate] yielded an inhibition at 0.3 µM in data set [1] of 10.5%.
With `CC1(C)[C@H](c2nc(-c3ccc(F)cc3)no2)CC[C@]1(C)NCC(=O)N1C[C@@H](F)C[C@H]1C#N` [Example 49, (2S,4S)-4-Fluoro-1-(2-((1S,3R)-3-(3-(4-fluorophenyl)-1,2,4-oxadiazol-5-yl)-1,2,2-trimethylcyclopentylamino)acetyl)pyrrolidine-2-carbonitrile], the melting point fell in the range of 160 to 163 °C. This molecule also came in with a 50% inhibitory concentration (IC50) in data set [1] of 422 nM.

Values taken from US8466145B2, “Dipeptidyl peptidase IV inhibitors” (Orchid Chemicals & Pharmaceuticals Limited, priority 2009, dated 2013).
